{"source": "patent US11179341B2", "about": "“Self-righting articles” (priority 2017, dated 2021)", "tested_on": "Micrococcus lysodeikticus cells", "assay": "Lysozyme enzyme activity assay", "assay_type": "biochemical", "conditions": "micropost tips 80% lysozyme and 20% PEO 200 k, versus uncompressed powder", "experimental": "To measure the activity of lysozyme, the assay provided by Sigma Aldrich was used which measures the amount of lysed Micrococcus lysodeikticus cells. Briefly, a 200 unit/mL Lysozyme solution in 50 mM Potassium Phosphate Buffer was added to a 0.015% [w/v] Micrococcus lysodeikticus cell suspension in the same buffer. The decrease was recorded in A450 over 5 minutes. Nine micropost tips were fabricated from 80% lysozyme and 20% PEO 200 k and dissolved sets of three micropost tips together. Triplicate assays were performed on each dissolved solution for a total of nine tests and the results were compared to the results of a solution made with lysozyme that was not compressed into a micropost tip.", "data": [{"substance": "lysozyme", "values": [{"measurement": "lysozyme activity after the manufacturing process", "result": "maintain their activity"}]}]}
